Measured values: US10195185B2, “3-(1H-imidazo[4,5-C]pyridin-2-yl)-1H-pyrazolo[4,3-B]pyridines and therapeutic uses thereof” (Samumed, LLC, priority 2015, dated 2019)
pEC50: −log10 of the molar value.

Tests used:
[1] = test system: IL-6 in human monocyte cell line (THP-1 cells); experiment: IL-6 inhibition in LPS-stimulated THP-1 cells (HTRF); type: cell-based; settings: IL-6 in LPS-stimulated THP-1 cells; for pEC50: HTRF; for inhibition at 10 µM: read-out: percent inhibition in brackets beside EC50 >10 μM
Summary of the method: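 Readout is the 665/620 nm HTRF ratio for secreted IL-6, normalized to DMSO wells, with EC50 from a variable-slope four-parameter fit, or % inhibition at 10 μM when above 10 μM. Cells (1% FBS, 24 h beforehand) got compound for 2 h, then LPS 500 ng/mL for 22 h at 37° C; top dose 10 μM, 0.1% DMSO.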

[2] = test system: primary human mesenchymal stem cells (hMSCs); experiment: Induction of chondrogenesis in hMSCs (nodule area, Rhodamine B / Nile Red); type: cell-based; settings: TGF-β3 as positive control; for Emax: read-out: Max. Activity as % TGF-β3 activity; for EC50: concentration required to induce 50% levels of chondrogenesis, read-out: Conc (nM) of 50% TGF-β3 activity
Summary of the method: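 Primary hMSCs (passage 3–6) in incomplete chondrogenic induction medium were treated 6 days at 37° C. with 1:3 dilutions (2700–10 nM in 96-well or 5000–2.2 nM in 384-well; 0.03% DMSO). Rhodamine B/Nile Red-stained nodule area was imaged, normalized to DMSO wells, and EC50 was set against TGF-β3 (10 ng/mL).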

Row | pEC50 [1] | EC50 [2] | Compound | Emax [2] | inhibition at 10 µM [1]
1 | 5.45 | 2 nM | CN(C)CCOc1cncc(-c2ccc3[nH]nc(-c4nc5c(-c6cccc(F)c6)nccc5[nH]4)c3n2)c1 [Compound 515, 2-((5-(3-(4-(3-Fluorophenyl)-1H-imidazo[4,5-c]pyridin-2-yl)-1H-pyrazolo [4,3-b]pyridin-5-yl)pyridin-3-yl)oxy)-N,N-dimethylethan-1-amine] | 59% | –
2 | < 5.00 | 21 nM | CC(C)CC(=O)Nc1cncc(-c2ccc3[nH]nc(-c4nc5c(-c6cccc(F)c6)nccc5[nH]4)c3n2)c1 [Compound 2, N-(5-(3-(4-(3-Fluorophenyl)-1H-imidazo[4,5-c]pyridin-2-yl)-1H-pyrazolo [4,3-b]pyridin-5-yl)pyridin-3-yl)-3-methylbutanamide] | 58% | 2.5%
3 | 5.01 | – | Cc1ccncc1-c1ccc2[nH]nc(-c3nc4c(-c5cc(F)cc(CNS(C)(=O)=O)c5)nccc4[nH]3)c2n1 [Compound 481, N-(3-Fluoro-5-(2-(5-(4-methylpyridin-3-yl)-1H-pyrazolo[4,3-b]pyridin-3-yl)-1H-imidazo[4,5-c]pyridin-4-yl)benzyl)methanesulfonamide] | 30% | –
4 | < 5.00 | 21 nM | Fc1cccc(-c2nccc3[nH]c(-c4n[nH]c5ccc(-c6cnccn6)nc45)nc23)c1 [Compound 520, 3-(4-(3-Fluorophenyl)-1H-imidazo[4,5-c]pyridin-2-yl)-5-(pyrazin-2-yl)-1H-pyrazolo[4,3-b]pyridine] | 55% | 29.4%
5 | < 5.00 | 2 nM | Fc1cccc(-c2nccc3[nH]c(-c4n[nH]c5ccc(-c6ccncc6)nc45)nc23)c1 [Compound 18, 3-(4-(3-Fluorophenyl)-1H-imidazo[4,5-c]pyridin-2-yl)-5-(pyridin-4-yl)-1H-pyrazolo[4,3-b]pyridine] | 53% | 4.6%
6 | < 5.00 | – | NC1CN(c2cncc(-c3ccc4[nH]nc(-c5nc6c(-c7cccc(F)c7)nccc6[nH]5)c4n3)n2)C1 [Compound 510, 1-(6-(3-(4-(3-Fluorophenyl)-1H-imidazo[4,5-c]pyridin-2-yl)-1H-pyrazolo [4,3-b]pyridin-5-yl)pyrazin-2-yl)azetidin-3-amine] | 36% | 9.4%
7 | 5.51 | 900 nM | CN(C)c1cncc(-c2ccc3[nH]nc(-c4nc5c(-c6cccc(F)c6)nccc5[nH]4)c3n2)c1 [Compound 7] | 58% | –
8 | 5.47 | 100 nM | CN(C)c1cncc(-c2ccc3[nH]nc(-c4nc5c(-c6cccs6)nccc5[nH]4)c3n2)c1 [Compound 343, N,N-Dimethyl-5-(3-(4-(thiophen-2-yl)-1H-imidazo[4,5-c]pyridin-2-yl)-1H-pyrazolo[4,3-b]pyridin-5-yl)pyridin-3-amine] | 85% | –
9 | 5.42 | 30 nM | CN(C)Cc1cncc(-c2ccc3[nH]nc(-c4nc5c(-c6cccc(F)c6)nccc5[nH]4)c3n2)c1 [Compound 13, 1-(5-(3-(4-(3-Fluorophenyl)-1H-imidazo[4,5-c]pyridin-2-yl)-1H-pyrazolo [4,3-b]pyridin-5-yl)pyridin-3-yl)-N,N-dimethylmethanamine] | 76% | –
10 | < 5.00 | – | CCCC(=O)Nc1cncc(-c2ccc3[nH]nc(-c4nc5c(-c6cc(F)cc(CNS(C)(=O)=O)c6)nccc5[nH]4)c3n2)c1 [Compound 493, N-(5-(3-(4-(3-Fluoro-5-(methylsulfonamidomethyl)phenyl)-1H-imidazo[4,5-c]pyridin-2-yl)-1H-pyrazolo[4,3-b]pyridin-5-yl)pyridin-3-yl)butyramide] | 46% | 20.3%
11 | < 5.00 | 7 nM | Oc1cncc(-c2ccc3[nH]nc(-c4nc5c(-c6cccc(F)c6)nccc5[nH]4)c3n2)c1 [Compound 517, 5-(3-(4-(3-Fluorophenyl)-1H-imidazo[4,5-c]pyridin-2-yl)-1H-pyrazolo[4,3-b]pyridin-5-yl)pyridin-3-ol] | 57% | 54.4%
12 | < 5.00 | 1670 nM | Cc1ccc(-c2nccc3[nH]c(-c4n[nH]c5ccc(-c6cncc(NC(=O)C(C)C)c6)nc45)nc23)s1 [Compound 401, N-(5-(3-(4-(5-Methylthiophen-2-yl)-1H-imidazo[4,5-c]pyridin-2-yl)-1H-pyrazolo [4,3-b]pyridin-5-yl)pyridin-3-yl)isobutyramide] | 56% | 0%

Row | Compound | pEC50 [1] | EC50 [2] | Emax [2] | inhibition at 10 µM [1]
13 | Fc1cccc(-c2nccc3[nH]c(-c4n[nH]c5ccc(C6=CCNCC6)nc45)nc23)c1 [Compound 506, 3-(4-(3-Fluorophenyl)-1H-imidazo[4,5-c]pyridin-2-yl)-5-(1,2,3,6-tetrahydropyridin-4-yl)-1H-pyrazolo[4,3-b]pyridine] | < 5.00 | 21 nM | 56% | 34.6%
